From publication PMC10803253, “Structural insights into the iron nitrogenase complex” (Nature Structural & Molecular Biology, 2023)

Columns and labels:
[1] = target: T1, Fe nitrogenase catalytic component, AnfD FeFeco site, in the Anf(DGK)2(H2)2 complex (Rhodobacter capsulatus, UniProt D5ANJ7); assay: cryo-EM structure ([…] Å); assay type: binding; settings: bidentate ligand of FeFeco iron Fe8 via 2-hydroxyl and 2-carboxyl; co-purified; ADP·AlF3-trapped complex
T1 construct: C-terminal Strep-tag II on AnfD, N-terminal His6-tag on AnfH, no linkers; plasmid expression in R. capsulatus MM0436; AlF3-trapped Anf(DGK)2(H2)2; with Nitrogenase iron-iron protein beta chain; Nitrogenase iron-iron protein delta chain; Nitrogenase iron protein (iron-iron nitrogenase reductase)

[2] = target: T2, Fe nitrogenase reductase component AnfH2 in the Anf(DGK)2(H2)2 complex (Rhodobacter capsulatus, UniProt D5ANJ6); assay: cryo-EM structure ([…] Å); assay type: binding; settings: covalent (Cys97 and Cys132 of two AnfH subunits); co-purified
T2 construct: gene anfH; N-terminal His6-tag on AnfH, C-terminal Strep-tag II on AnfD, no linkers; plasmid expression in R. capsulatus MM0436; AlF3-trapped Anf(DGK)2(H2)2, ~360 kDa by mass photometry; with Nitrogenase iron-iron protein alpha chain; Nitrogenase iron-iron protein beta chain; Nitrogenase iron-iron protein delta chain
T2 sequence (D5ANJ6 1-275): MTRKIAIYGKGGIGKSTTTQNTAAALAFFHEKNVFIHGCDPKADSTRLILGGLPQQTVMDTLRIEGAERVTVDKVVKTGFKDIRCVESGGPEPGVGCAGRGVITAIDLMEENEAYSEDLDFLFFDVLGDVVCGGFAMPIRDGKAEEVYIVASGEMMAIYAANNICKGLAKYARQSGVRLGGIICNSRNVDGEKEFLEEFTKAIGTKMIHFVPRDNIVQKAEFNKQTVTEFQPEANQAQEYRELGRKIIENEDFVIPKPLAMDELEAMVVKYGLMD
T2 sequence (D5ANJ7 1-527 partner): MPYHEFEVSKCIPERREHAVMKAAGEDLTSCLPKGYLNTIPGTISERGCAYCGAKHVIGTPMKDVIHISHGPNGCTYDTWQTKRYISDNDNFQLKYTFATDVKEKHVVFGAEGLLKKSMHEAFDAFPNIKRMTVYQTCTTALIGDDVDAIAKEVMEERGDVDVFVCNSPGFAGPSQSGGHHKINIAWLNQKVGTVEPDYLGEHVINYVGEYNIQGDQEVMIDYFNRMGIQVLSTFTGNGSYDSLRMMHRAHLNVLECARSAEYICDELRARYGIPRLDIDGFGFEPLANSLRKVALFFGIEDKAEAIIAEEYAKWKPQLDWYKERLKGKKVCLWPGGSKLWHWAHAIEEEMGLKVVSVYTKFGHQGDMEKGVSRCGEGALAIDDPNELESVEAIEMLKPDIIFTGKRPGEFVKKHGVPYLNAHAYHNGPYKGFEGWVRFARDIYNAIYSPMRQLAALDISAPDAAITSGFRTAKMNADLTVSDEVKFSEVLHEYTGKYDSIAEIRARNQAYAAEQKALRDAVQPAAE
T2 sequence (D5ANJ9 1-460 partner): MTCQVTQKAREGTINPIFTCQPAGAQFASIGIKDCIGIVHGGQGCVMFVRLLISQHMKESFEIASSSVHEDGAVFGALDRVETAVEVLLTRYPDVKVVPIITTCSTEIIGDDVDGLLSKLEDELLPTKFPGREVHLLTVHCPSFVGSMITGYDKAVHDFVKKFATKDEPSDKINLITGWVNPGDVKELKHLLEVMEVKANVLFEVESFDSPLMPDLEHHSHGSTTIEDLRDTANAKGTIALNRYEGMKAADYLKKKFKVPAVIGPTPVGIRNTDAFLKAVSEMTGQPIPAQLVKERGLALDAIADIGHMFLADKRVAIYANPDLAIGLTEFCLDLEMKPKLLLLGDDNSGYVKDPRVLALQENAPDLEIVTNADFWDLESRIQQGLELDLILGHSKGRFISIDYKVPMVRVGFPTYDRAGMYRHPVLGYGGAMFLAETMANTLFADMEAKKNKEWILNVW
T2 sequence (D5ANJ8 1-115 partner): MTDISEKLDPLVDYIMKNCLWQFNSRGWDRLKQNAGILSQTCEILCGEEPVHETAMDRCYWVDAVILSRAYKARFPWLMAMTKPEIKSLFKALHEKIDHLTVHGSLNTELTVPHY

T1 sequence (D5ANJ9 entry or part of it): as the sequence (D5ANJ9 1-460 partner) above
T1 sequence (D5ANJ6 entry or part of it, further chain): as the sequence (D5ANJ6 1-275) above
T1 sequence (D5ANJ7 entry or part of it): as the sequence (D5ANJ7 1-527 partner) above
T1 sequence (D5ANJ8 entry or part of it, further chain): as the sequence (D5ANJ8 1-115 partner) above

| Structure (SMILES) | cryo-EM structure (2.35 Å) [1] | cryo-EM structure (2.35 Å) [2] |
| --- | --- | --- |
| O=C(O)CC[C@@](O)(CC(=O)O)C(=O)O [(R)-homocitrate] | additionally coordinated by a bidentate (R)-homocitrate ligand that binds the iron atom | – |
| [S]12[Fe]3[S]4[Fe]1[S]1[Fe]2[S]3[Fe]41 [[Fe4S4] cluster] | – | we observed an [Fe4S4] cluster coordinated by Cys97 and Cys132 |
